Source: ChEMBL document CHEMBL1123754, “N6-phenyladenosines: pronounced effect of phenyl substituents on affinity for A2 adenosine receptors” (J Med Chem, 1987)

Legend:
Adenosine receptor A1 [1] = molecular target: T1, Adenosine receptor A1 (Gallus gallus, UniProt P49892); experiment: Displacement of [125I]ABA from adenosine A1 receptor of chick cerebellar membrane
T1 sequence (P49892 whole entry): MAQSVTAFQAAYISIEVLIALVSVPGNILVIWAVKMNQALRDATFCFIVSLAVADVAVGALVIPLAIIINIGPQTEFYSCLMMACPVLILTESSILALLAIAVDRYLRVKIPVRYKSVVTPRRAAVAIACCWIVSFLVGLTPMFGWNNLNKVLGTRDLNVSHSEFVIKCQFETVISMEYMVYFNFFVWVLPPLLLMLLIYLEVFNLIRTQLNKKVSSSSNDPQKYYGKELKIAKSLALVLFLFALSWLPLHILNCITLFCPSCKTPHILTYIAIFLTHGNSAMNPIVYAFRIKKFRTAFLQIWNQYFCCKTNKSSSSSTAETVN

Adenosine A2 receptor = Adenosine A2 receptor (Rattus norvegicus, UniProt P29276+P30543)
Description: Displacement of [3H]-NECA from adenosine A2 receptor of rat striatal membrane

[2] = Relative affinities for adenosine A2 and A1 receptors
Adenosine receptor A1 [3] = molecular target: T1, Adenosine receptor A1; experiment: Binding affinity for Adenosine A1 receptor using [125I]-ABA in chick cerebellar membrane; type: cell membranes, Cerebellum

SMILES	IC50 (Adenosine receptor A1 [1]) [µM]	IC50 (Adenosine A2 receptor) [µM]	Selectivity [2]	IC50 (Adenosine receptor A1 [3]) [µM]
OC[C@H]1O[C@@H](n2cnc3c(Nc4ccccc4)ncnc32)[C@H](O)[C@@H]1O [N6-PHENYLADENOSINE]	0.0046	0.66	140	–
OC[C@H]1OC(n2cnc3c(Nc4ccc(I)cc4)ncnc32)[C@H](O)[C@@H]1O (stereo partly drawn)	0.0085	1.28	150	–
COc1ccc(Nc2ncnc3c2ncn3[C@@H]2O[C@H](CO)[C@@H](O)[C@H]2O)cc1	0.0064	1.76	275	–
OC[C@H]1O[C@@H](n2cnc3c(NC4CCCCC4)ncnc32)[C@H](O)[C@@H]1O	0.0025	–	–	–
CCc1cccc(Nc2ncnc3c2ncn3C2O[C@H](CO)[C@@H](O)[C@H]2O)c1 (stereo partly drawn)	0.0253	10.2	403	–
OC[C@H]1OC(n2cnc3c(Nc4ccc(F)cc4)ncnc32)[C@H](O)[C@@H]1O (stereo partly drawn)	0.0131	0.86	65	–
OC[C@H]1OC(n2cnc3c(Nc4cccc(O)c4)ncnc32)[C@H](O)[C@@H]1O (stereo partly drawn)	–	7.64	690	0.0111
CCc1ccc(Nc2ncnc3c2ncn3C2O[C@H](CO)[C@@H](O)[C@H]2O)cc1 (stereo partly drawn)	0.0128	0.96	75	–
OC[C@H]1OC(n2cnc3c(Nc4cccc(F)c4)ncnc32)[C@H](O)[C@@H]1O (stereo partly drawn)	0.0103	1.6	155	–
Nc1cccc(Nc2ncnc3c2ncn3C2O[C@H](CO)[C@@H](O)[C@H]2O)c1 (stereo partly drawn)	0.0451	10.1	225	–
OC[C@H]1OC(n2cnc3c(Nc4cccc(I)c4)ncnc32)[C@H](O)[C@@H]1O (stereo partly drawn)	0.019	11.9	620	–
Cc1ccc(Nc2ncnc3c2ncn3C2O[C@H](CO)[C@@H](O)[C@H]2O)cc1 (stereo partly drawn)	0.0085	0.92	110	–
CCNC(=O)[C@H]1O[C@@H](n2cnc3c(N)ncnc32)[C@H](O)[C@@H]1O [NECA]	0.017	–	–	–
OC[C@H]1OC(n2cnc3c(Nc4cccc(B(O)O)c4)ncnc32)[C@H](O)[C@@H]1O (stereo partly drawn)	0.0421	9.3	220	–
